In US11858945B2, “Alkyne-containing antiviral agents” (Enanta Pharmaceuticals, Inc., priority 2021, dated 2024):

Each compound was assayed against SARS-CoV-2 3CL-protease (Severe acute respiratory syndrome coronavirus 2 (2019-nCoV) (SARS-CoV-2), UniProt P0DTD1) (assay: SARS-CoV-2 3C-like (3CL) protease fluorescence assay (FRET)). Settings: recombinant SARS-CoV-2 3CL-protease 10 nM, 30 min preincubation at RT, peptide substrate, run in duplicate; IC50 ranges.
Type: biochemical
`C#C[C@@H]1C[C@@]2(CN1C(=O)[C@H](CC(C)(C)F)NC(=O)c1cc3cccc(F)c3[nH]1)C(=O)Nc1ccccc12` [Compound 8, N—((S)-1-((3R,5′S)-5′-ethynyl-2-oxospiro[indoline-3,3′-pyrrolidin]-1′-yl)-4-fluoro-4-methyl-1-oxopentan-2-yl)-7-fluoro-1H-indole-2-carboxamide] showed an IC50 of under 100 nM. Work on `C#C[C@@H]1C[C@@]2(CN1C(=O)[C@H](CC(C)(C)F)NC(=O)c1cc3cc(F)c(F)c(F)c3[nH]1)C(=O)Nc1ccccc12` [Compound 12, N—((S)-1-((3R,5′S)-5′-ethynyl-2-oxospiro[indoline-3,3′-pyrrolidin]-1′-yl)-4-fluoro-4-methyl-1-oxopentan-2-yl)-5,6,7-trifluoro-1H-indole-2-carboxamide] yielded an IC50 of under 100 nM. `C#C[C@@H]1C[C@@]2(CN1C(=O)[C@H](CC(C)(C)F)NC(=O)c1cc3c(Cl)cccc3[nH]1)C(=O)Nc1ccccc12` [Compound 2, 4-chloro-N—((S)-1-((3R,5′S)-5′-ethynyl-2-oxospiro[indoline-3,3′-pyrrolidin]-1′-yl)-4-fluoro-4-methyl-1-oxopentan-2-yl)-1H-indole-2-carboxamide] gave an IC50 of 100 to 1000 nM. In the case of `C#C[C@@H]1C[C@@]2(CN1C(=O)[C@H](CC(C)(C)F)NC(=O)c1cc3cccc(F)c3o1)C(=O)Nc1ccccc12` [Compound 17, N—((S)-1-((3R,5′S)-5′-ethynyl-2-oxospiro[indoline-3,3′-pyrrolidin]-1′-yl)-4-fluoro-4-methyl-1-oxopentan-2-yl)-7-fluorobenzofuran-2-carboxamide], the IC50 is reported as over 1000 nM. `C#C[C@@H]1C[C@@]2(CN1C(=O)[C@H](CC(C)(C)F)NC(=O)c1cc3c(Cl)cc(Cl)cc3[nH]1)C(=O)Nc1ccccc12` [Compound 6, 4,6-dichloro-N—((S)-1-((3R,5′S)-5′-ethynyl-2-oxospiro[indoline-3,3′-pyrrolidin]-1′-yl)-4-fluoro-4-methyl-1-oxopentan-2-yl)-1H-indole-2-carboxamide] showed an IC50 of 100 to 1000 nM. For `C#C[C@@H]1C[C@@]2(CN1C(=O)[C@H](CC(C)(C)F)NC(=O)c1cc3cccc(Cl)c3[nH]1)C(=O)Nc1ccccc12` [Compound 5, 7-chloro-N—((S)-1-((3R,5′S)-5′-ethynyl-2-oxospiro[indoline-3,3′-pyrrolidin]-1′-yl)-4-fluoro-4-methyl-1-oxopentan-2-yl)-1H-indole-2-carboxamide], the IC50 was under 100 nM. `C#C[C@@H]1C[C@@]2(CN1C(=O)[C@H](CC(C)(C)F)NC(=O)c1cc3cc(C(F)(F)F)ccc3[nH]1)C(=O)Nc1ccccc12` [Compound 14, N—((S)-1-((3R,5′S)-5′-ethynyl-2-oxospiro[indoline-3,3′-pyrrolidin]-1′-yl)-4-fluoro-4-methyl-1-oxopentan-2-yl)-5-(trifluoromethyl)-1H-indole-2-carboxamide] gave an IC50 of 100 to 1000 nM. For `C#C[C@@H]1C[C@@]2(CN1C(=O)[C@H](CC(C)(C)F)NC(=O)c1cc3cc(Cl)ccc3[nH]1)C(=O)Nc1ccccc12` [Compound 3, 5-chloro-N—((S)-1-((3R,5′S)-5′-ethynyl-2-oxospiro[indoline-3,3′-pyrrolidin]-1′-yl)-4-fluoro-4-methyl-1-oxopentan-2-yl)-1H-indole-2-carboxamide], the IC50 was 100 to 1000 nM. For `C#C[C@@H]1C[C@@]2(CN1C(=O)[C@H](CC(C)(C)F)NC(=O)c1c(Cl)cccc1Cl)C(=O)Nc1ccccc12` [Compound 21, 2,6-dichloro-N—((S)-1-((3R,5′S)-5′-ethynyl-2-oxospiro[indoline-3,3′-pyrrolidin]-1′-yl)-4-fluoro-4-methyl-1-oxopentan-2-yl)benzamide], the IC50 was over 1000 nM. `C#C[C@@H]1C[C@@]2(CN1C(=O)[C@H](CC(C)(C)F)NC(=O)c1cc(F)c3ncccc3c1)C(=O)Nc1ccccc12` [Compound 19, N—((S)-1-((3R,5′S)-5′-ethynyl-2-oxospiro[indoline-3,3′-pyrrolidin]-1′-yl)-4-fluoro-4-methyl-1-oxopentan-2-yl)-8-fluoroquinoline-6-carboxamide] was tested, and the IC50 was over 1000 nM. `C#C[C@@H]1C[C@@]2(CN1C(=O)[C@H](CC(C)(C)F)NC(=O)c1cc3c(F)ccc(F)c3[nH]1)C(=O)Nc1ccccc12` [Compound 11, N—((S)-1-((3R,5′S)-5′-ethynyl-2-oxospiro[indoline-3,3′-pyrrolidin]-1′-yl)-4-fluoro-4-methyl-1-oxopentan-2-yl)-4,7-difluoro-1H-indole-2-carboxamide] was tested, and the IC50 was under 100 nM. `C#C[C@@H]1C[C@@]2(CN1C(=O)[C@H](CC(C)(C)F)NC(=O)c1cc3ccc(F)cc3[nH]1)C(=O)Nc1ccccc12` [Compound 9, N—((S)-1-((3R,5′S)-5′-ethynyl-2-oxospiro[indoline-3,3′-pyrrolidin]-1′-yl)-4-fluoro-4-methyl-1-oxopentan-2-yl)-6-fluoro-1H-indole-2-carboxamide] showed an IC50 of under 100 nM. In the case of `C#C[C@@H]1C[C@@]2(CN1C(=O)[C@H](CC(C)(C)F)NC(=O)c1cc3cc(S(C)(=O)=O)ccc3[nH]1)C(=O)Nc1ccccc12` [Compound 1, N—((S)-1-((3R,5′S)-5′-ethynyl-2-oxospiro[indoline-3,3′-pyrrolidin]-1′-yl)-4-fluoro-4-methyl-1-oxopentan-2-yl)-5-(methylsulfonyl)-1H-indole-2-carboxamide], the IC50 is reported as 100 to 1000 nM. `C#C[C@@H]1C[C@@]2(CN1C(=O)[C@H](CC(C)(C)F)NC(=O)c1cc3cccc(C#N)c3[nH]1)C(=O)Nc1ccccc12` [Compound 15, 7-cyano-N—((S)-1-((3R,5′S)-5′-ethynyl-2-oxospiro[indoline-3,3′-pyrrolidin]-1′-yl)-4-fluoro-4-methyl-1-oxopentan-2-yl)-1H-indole-2-carboxamide] gave an IC50 of under 100 nM. `C#C[C@@H]1C[C@@]2(CN1C(=O)[C@H](CC(C)(C)F)NC(=O)c1cc3ccc(Cl)cc3[nH]1)C(=O)Nc1ccccc12` [Compound 4, 6-chloro-N—((S)-1-((3R,5′S)-5′-ethynyl-2-oxospiro[indoline-3,3′-pyrrolidin]-1′-yl)-4-fluoro-4-methyl-1-oxopentan-2-yl)-1H-indole-2-carboxamide] gave an IC50 of under 100 nM. `C#C[C@@H]1C[C@@]2(CN1C(=O)[C@H](CC(C)(C)F)NC(=O)c1cc3cc(F)ccc3o1)C(=O)Nc1ccccc12` [Compound 18, N—((S)-1-((3R,5′S)-5′-ethynyl-2-oxospiro[indoline-3,3′-pyrrolidin]-1′-yl)-4-fluoro-4-methyl-1-oxopentan-2-yl)-5-fluorobenzofuran-2-carboxamide] showed an IC50 of over 1000 nM. In the case of `C#C[C@@H]1C[C@@]2(CN1C(=O)[C@H](CC(C)(C)F)NC(=O)c1cc3c(F)cc(F)cc3[nH]1)C(=O)Nc1ccccc12` [Compound 10, N—((S)-1-((3R,5′S)-5′-ethynyl-2-oxospiro[indoline-3,3′-pyrrolidin]-1′-yl)-4-fluoro-4-methyl-1-oxopentan-2-yl)-4,6-difluoro-1H-indole-2-carboxamide], the IC50 is reported as 100 to 1000 nM. In the case of `C#C[C@@H]1C[C@@]2(CN1C(=O)[C@H](CC(C)(C)F)NC(=O)c1cc3ccc(Cl)c(Cl)c3[nH]1)C(=O)Nc1ccccc12` [Compound 7, 6,7-dichloro-N—((S)-1-((3R,5′S)-5′-ethynyl-2-oxospiro[indoline-3,3′-pyrrolidin]-1′-yl)-4-fluoro-4-methyl-1-oxopentan-2-yl)-1H-indole-2-carboxamide], the IC50 is reported as under 100 nM. For `C#C[C@@H]1C[C@@]2(CN1C(=O)[C@H](CC(C)(C)F)NC(=O)c1cc3cccc(C(F)(F)F)c3[nH]1)C(=O)Nc1ccccc12` [Compound 13, N—((S)-1-((3R,5′S)-5′-ethynyl-2-oxospiro[indoline-3,3′-pyrrolidin]-1′-yl)-4-fluoro-4-methyl-1-oxopentan-2-yl)-7-(trifluoromethyl)-1H-indole-2-carboxamide], the IC50 was under 100 nM. In the case of `C#C[C@@H]1C[C@@]2(CN1C(=O)[C@H](CC(C)(C)F)NC(=O)c1cccc(OC(F)(F)F)c1)C(=O)Nc1ccccc12` [Compound 20, N—((S)-1-((3R,5′S)-5′-ethynyl-2-oxospiro[indoline-3,3′-pyrrolidin]-1′-yl)-4-fluoro-4-methyl-1-oxopentan-2-yl)-3-(trifluoromethoxy)benzamide], the IC50 is reported as 100 to 1000 nM. In the case of `C#C[C@@H]1C[C@@]2(CN1C(=O)[C@H](CC(C)(C)F)NC(=O)c1cc3cccnc3[nH]1)C(=O)Nc1ccccc12` [Compound 16, N—((S)-1-((3R,5′S)-5′-ethynyl-2-oxospiro[indoline-3,3′-pyrrolidin]-1′-yl)-4-fluoro-4-methyl-1-oxopentan-2-yl)-1H-pyrrolo[2,3-b]pyridine-2-carboxamide], the IC50 is reported as 100 to 1000 nM.
